The source made the active and inactive calls. Cut-off read from the data, not from the text of the source, for most assays here: actives have a measured EC50 and inactives only a lower limit.
Key:
[1] = molecular target: Eukaryotic translation initiation factor 4E (Mus musculus, UniProt P63073); experiment: blockers of eIF4G binding by eIF4E – biochemical, TR-FRET, dose response (AID 855); format: functional;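 note: potency for disrupting eIF4E binding to eIF4GI seen as loss of FRET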
[2] = molecular target: Troponin, cardiac muscle (Homo sapiens, UniProt P19429+P45379+P63316); experiment: compounds desensitizing RTF to calcium – biochemical, fluorescence, cardiac regulated thin filaments, triplicate IC50, dose response (AID 504742); format: protein-complex assay
[3] = molecular target: T1, ORF 73 (Human herpesvirus 8, UniProt O40947); experiment: KSHV LANA DNA-binding disruption – biochemical, fluorescence polarization, cherry-picked samples, dose response (AID 504725); parameters: species or system Human gammaherpesvirus 8;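 note: fluorescence polarization of a labeled DNA duplex reporting LANA DNA binding; potency is for inhibitors that block LANA binding to the DNA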
T1 sequence (O40947 whole entry): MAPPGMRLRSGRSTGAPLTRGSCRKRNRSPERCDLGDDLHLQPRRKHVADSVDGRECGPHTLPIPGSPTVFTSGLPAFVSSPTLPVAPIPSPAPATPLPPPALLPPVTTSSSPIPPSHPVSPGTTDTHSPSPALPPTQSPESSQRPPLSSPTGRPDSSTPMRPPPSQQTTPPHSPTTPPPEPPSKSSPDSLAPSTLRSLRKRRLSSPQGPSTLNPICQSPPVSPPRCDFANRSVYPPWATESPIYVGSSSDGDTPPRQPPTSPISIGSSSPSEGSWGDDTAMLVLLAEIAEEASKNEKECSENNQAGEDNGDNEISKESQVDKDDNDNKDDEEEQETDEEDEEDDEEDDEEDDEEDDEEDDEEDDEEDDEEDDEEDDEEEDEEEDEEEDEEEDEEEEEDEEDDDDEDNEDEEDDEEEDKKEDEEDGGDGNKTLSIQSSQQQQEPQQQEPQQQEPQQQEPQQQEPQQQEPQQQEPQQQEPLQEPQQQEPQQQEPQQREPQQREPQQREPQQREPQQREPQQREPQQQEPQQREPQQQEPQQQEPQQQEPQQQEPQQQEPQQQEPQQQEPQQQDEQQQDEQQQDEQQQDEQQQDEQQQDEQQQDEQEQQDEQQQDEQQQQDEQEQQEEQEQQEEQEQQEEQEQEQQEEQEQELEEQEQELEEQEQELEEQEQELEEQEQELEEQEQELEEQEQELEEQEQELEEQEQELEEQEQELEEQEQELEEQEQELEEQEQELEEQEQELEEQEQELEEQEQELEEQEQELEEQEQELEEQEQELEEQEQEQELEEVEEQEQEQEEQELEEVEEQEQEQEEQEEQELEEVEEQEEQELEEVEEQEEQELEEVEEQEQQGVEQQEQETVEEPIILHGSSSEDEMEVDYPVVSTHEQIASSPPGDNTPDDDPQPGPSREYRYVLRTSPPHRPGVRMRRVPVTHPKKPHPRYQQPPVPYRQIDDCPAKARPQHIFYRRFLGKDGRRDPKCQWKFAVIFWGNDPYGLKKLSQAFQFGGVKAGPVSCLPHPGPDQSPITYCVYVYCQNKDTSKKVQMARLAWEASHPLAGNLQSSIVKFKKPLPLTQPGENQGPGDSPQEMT

[4] = molecular target: T2, RNA-binding protein pos-1 (Caenorhabditis elegans, UniProt G5EF15); experiment: disruptors of C. elegans POS-1 RNA interaction – biochemical, fluorescence polarization, dose response (AID 1964);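 note: purified POS-1 fused to maltose binding protein made in E. coli; potency of compounds blocking POS-1 binding to fluorescent RNA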
T2 sequence (G5EF15 whole entry): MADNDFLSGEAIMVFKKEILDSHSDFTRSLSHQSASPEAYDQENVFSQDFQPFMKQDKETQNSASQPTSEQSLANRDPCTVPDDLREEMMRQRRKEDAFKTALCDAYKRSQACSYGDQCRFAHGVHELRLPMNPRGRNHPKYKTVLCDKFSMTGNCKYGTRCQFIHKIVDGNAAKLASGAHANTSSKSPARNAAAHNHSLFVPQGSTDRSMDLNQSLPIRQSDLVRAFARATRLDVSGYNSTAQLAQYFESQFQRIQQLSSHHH

[5] = molecular target: T3, Zinc finger protein mex-5 (Caenorhabditis elegans, UniProt Q9XUB2); experiment: potency of MEX-5 RNA-binding blockers – biochemical, C. elegans, fluorescence polarization, dose response (AID 1960)
T3 sequence (Q9XUB2 whole entry): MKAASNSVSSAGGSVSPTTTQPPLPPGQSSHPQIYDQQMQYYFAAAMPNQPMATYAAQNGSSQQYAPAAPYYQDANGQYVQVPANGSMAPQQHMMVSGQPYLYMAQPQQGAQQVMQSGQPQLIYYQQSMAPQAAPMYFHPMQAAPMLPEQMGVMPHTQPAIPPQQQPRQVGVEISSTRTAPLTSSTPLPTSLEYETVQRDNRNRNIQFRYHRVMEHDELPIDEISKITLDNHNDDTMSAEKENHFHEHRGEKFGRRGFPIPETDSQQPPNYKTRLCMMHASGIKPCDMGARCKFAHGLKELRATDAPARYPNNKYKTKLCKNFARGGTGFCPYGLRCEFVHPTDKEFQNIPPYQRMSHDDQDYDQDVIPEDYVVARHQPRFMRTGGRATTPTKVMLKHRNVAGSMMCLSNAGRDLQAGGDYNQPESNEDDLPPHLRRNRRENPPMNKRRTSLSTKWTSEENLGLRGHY

[6] = activation of miR-122 Renilla sensor silencing – cell-based, Huh7 psiCHECK-miR122, Renilla luciferase, cherry-picked, dose response (AID 651956); format: functional;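 note: huh7 hepatoma cells stably carrying a psiCHECK-2 miR-122 sensor plasmid; renilla luciferase signal reporting endogenous miR-122 activity after 48 h compound exposure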
[7] = NIH-3T3 fibroblast cytotoxicity, dose response, cytotoxicity control, cell-based, fluorescence, Alamar Blue, secondary assay (AID 2327); format: functional;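 note: NIH-3T3 mouse fibroblasts cultured with fluconazole at 8 µg/mL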
[8] = Trypanosoma cruzi growth suppression in host cells – NIH3T3 host cells, beta-gal luminescence, confirmation (AID 2044); format: functional, cell-based;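 note: intracellular parasites grown in NIH/3T3 mouse fibroblasts as host cells; luminescent beta-galactosidase reporter signal from transgenic T. cruzi replicating inside host cells; inhibitors lower the luminescence signal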
[9] = cells; format: functional, cell-based
[10] = Luminescence Cell-Based Dose Response HTS to Identify Inhibitors of 5'UTR Stem-Loop Driven Prion Protein mRNA Translation in H4 Neuroglioblastoma Cells. [Related pubchem assays: 1827 (Project Summary), 1813 (Primary HTS)]; format: functional
[11] = molecular target: T4, Streptokinase A (Streptococcus pyogenes serotype M1, UniProt P10520); experiment: viability-normalized secreted streptokinase activity reduction – plasminogen activation absorbance, OD405, dose response (AID 1914); format: functional, Streptococcus pyogenes M1 GAS;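 note: secreted streptokinase activity via plasminogen activation per viability signal from cell pellet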
T4 sequence (P10520 whole entry): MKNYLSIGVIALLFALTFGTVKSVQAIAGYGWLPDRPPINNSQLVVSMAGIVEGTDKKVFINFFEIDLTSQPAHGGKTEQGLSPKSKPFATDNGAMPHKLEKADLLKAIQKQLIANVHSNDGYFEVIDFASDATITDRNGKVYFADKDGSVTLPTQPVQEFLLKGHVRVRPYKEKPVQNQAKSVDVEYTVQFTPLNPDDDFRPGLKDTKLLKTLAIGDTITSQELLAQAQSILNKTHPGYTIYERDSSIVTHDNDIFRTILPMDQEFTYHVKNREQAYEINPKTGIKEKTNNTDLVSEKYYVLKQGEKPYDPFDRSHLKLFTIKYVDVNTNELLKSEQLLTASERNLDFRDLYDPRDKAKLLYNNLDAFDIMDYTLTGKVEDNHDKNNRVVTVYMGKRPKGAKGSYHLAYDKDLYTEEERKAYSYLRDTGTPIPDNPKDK

[12] = molecular target: Dual specificity tyrosine-phosphorylation-regulated kinase 1A (Rattus norvegicus, UniProt Q63470); format: biochemical, Homo sapiens

Eukaryotic translation initiation factor 4E, sequence (P63073 whole entry): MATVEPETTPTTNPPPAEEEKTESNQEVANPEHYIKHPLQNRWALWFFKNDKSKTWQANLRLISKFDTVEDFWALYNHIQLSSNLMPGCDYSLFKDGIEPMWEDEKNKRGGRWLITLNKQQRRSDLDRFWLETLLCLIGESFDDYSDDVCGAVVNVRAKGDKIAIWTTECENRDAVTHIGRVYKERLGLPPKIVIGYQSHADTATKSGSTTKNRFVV

For `CC(C)C(C(=O)O)N1C(=O)/C(=C/C=C/c2ccco2)SC1=S` (stereo not given), the IC50 [1] was 11.3 µM (active), the IC50 [2] was 22.4 µM (inactive) and the AC50 [3] was 45.6 µM (active). The EC50 [4] was 11 µM (inconclusive) and the EC50 [5] was 19.4 µM (inconclusive).

For `Oc1ccc2ccccc2c1/C=N/Nc1nnc(-c2ncc[nH]2)c2ccccc12`, the AC50 [6] was 37.6 µM (active), the EC50 [7] was 11.4 µM (active) and the EC50 [8] was 0.412 µM (active). For the same molecule, the EC50 [9] was 82.8 µM (active), the EC50 [10] was 0.292 µM (active) and the EC50 [11] was 5.52 µM (active). The EC50 [4] was 48.7 µM (inconclusive) and the EC50 [5] was 2.45 µM (active).

For `O=C1CCN2C=Nc3cccc4ccc1c2c34`, the AC50 [12] was 3 µM (active) and the AC50 [3] was 1.42 µM (active).

From ChEMBL document CHEMBL1201862, “PubChem BioAssay data set” (2004)
